One series has as its target ROCK2 (Homo sapiens (Human), UniProt O75116). Briefly: Kinase assay ROCK2. The series is classed as biochemical. The note with it: HCl salt. The protocol:
(§1) Inhibition of various kinases was assayed.

Another series concerns the target ROCK1 (Homo sapiens (Human), UniProt Q13464). Briefly: Kinase assay ROCK1. The series is classed as biochemical. The note with it: HCl salt. The protocol: as §1
The target of the next series is PKA (Homo sapiens, UniProt P17612). Briefly: Kinase assay PKA. The series is classed as biochemical. Conditions: HCl salt. On the procedure:
as §1

A further series has as its target JAK1 (Homo sapiens (Human), UniProt P23458). Briefly: Kinase assay JAK1. The series is classed as biochemical. Conditions: HCl salt. On the procedure: as §1
For a further series, the target named is JAK2 (Homo sapiens (Human), UniProt O60674). Briefly: Kinase assay JAK2. The series is classed as biochemical. The note with it: HCl salt.
JAK2, sequence (O60674 whole entry, species assumed): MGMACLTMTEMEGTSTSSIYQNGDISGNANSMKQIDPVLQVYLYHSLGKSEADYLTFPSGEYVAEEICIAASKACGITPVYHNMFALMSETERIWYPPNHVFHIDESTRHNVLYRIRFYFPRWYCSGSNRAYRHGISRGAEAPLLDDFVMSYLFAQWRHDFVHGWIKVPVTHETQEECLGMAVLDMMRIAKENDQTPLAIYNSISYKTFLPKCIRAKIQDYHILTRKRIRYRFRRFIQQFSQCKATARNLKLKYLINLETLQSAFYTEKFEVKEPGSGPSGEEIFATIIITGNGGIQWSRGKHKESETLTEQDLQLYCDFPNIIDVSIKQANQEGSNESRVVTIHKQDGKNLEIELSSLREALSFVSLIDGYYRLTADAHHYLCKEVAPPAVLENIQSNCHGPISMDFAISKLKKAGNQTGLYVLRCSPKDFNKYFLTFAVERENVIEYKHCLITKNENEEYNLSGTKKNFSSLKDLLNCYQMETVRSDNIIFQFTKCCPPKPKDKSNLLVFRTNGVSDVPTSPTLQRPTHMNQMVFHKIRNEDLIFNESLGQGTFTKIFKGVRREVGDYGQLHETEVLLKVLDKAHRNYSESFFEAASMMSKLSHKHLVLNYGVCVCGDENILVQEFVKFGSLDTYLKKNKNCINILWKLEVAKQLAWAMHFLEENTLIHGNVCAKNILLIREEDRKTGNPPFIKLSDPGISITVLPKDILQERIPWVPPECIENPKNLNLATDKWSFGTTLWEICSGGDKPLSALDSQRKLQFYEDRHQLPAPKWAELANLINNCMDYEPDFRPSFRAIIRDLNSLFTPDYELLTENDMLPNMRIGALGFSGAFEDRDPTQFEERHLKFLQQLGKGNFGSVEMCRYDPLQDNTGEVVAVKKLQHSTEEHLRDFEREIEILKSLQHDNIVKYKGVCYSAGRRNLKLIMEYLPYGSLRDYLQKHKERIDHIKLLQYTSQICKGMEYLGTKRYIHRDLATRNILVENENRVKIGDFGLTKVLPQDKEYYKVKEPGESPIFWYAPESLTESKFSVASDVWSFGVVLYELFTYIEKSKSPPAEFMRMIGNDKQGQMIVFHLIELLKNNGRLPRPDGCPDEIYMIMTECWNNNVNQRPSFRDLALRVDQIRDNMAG
In the next series the target is JAK3 (Homo sapiens (Human), UniProt P52333). Briefly: Kinase assay JAK3. The series is classed as biochemical. The note with it: HCl salt. The protocol: as §1
JAK3, sequence (P52333 whole entry, species assumed): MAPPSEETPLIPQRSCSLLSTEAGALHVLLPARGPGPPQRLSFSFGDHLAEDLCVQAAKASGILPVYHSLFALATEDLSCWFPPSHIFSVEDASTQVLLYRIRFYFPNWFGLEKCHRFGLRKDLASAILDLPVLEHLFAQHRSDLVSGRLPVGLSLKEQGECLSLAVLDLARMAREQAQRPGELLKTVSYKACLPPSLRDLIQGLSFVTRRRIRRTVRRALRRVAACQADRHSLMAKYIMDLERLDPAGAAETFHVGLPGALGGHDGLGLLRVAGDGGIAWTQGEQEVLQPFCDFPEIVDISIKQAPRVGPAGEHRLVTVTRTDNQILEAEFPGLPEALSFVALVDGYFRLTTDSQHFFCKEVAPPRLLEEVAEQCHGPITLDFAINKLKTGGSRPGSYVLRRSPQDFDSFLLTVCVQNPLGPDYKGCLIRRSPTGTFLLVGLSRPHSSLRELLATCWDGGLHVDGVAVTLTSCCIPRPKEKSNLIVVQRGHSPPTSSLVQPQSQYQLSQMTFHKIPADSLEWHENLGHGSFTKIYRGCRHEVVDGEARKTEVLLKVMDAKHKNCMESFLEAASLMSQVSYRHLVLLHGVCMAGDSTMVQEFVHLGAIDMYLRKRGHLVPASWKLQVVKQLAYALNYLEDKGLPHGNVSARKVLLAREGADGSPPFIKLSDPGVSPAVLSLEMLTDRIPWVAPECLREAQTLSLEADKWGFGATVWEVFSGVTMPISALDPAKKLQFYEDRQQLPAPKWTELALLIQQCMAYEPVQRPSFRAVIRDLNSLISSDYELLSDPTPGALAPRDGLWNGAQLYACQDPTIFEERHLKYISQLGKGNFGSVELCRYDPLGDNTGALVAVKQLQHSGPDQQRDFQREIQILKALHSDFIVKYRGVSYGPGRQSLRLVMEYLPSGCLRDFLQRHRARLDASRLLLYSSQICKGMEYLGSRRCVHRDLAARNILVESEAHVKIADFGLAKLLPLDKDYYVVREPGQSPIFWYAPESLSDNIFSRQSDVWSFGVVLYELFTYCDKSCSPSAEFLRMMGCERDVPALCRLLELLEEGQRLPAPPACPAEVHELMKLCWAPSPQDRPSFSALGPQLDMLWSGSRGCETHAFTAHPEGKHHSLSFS
In a further series the target is TYK2 (Homo sapiens (Human), UniProt P29597). Briefly: Kinase assay TYK2. The series is classed as biochemical. The note with it: HCl salt. The protocol: as §1
Another series deals with IKKb (Homo sapiens (Human), UniProt O14920). Briefly: Kinase assay IKKb. The series is classed as biochemical. Conditions: HCl salt. The protocol: as §1
IKKb, sequence (O14920 whole entry, species assumed): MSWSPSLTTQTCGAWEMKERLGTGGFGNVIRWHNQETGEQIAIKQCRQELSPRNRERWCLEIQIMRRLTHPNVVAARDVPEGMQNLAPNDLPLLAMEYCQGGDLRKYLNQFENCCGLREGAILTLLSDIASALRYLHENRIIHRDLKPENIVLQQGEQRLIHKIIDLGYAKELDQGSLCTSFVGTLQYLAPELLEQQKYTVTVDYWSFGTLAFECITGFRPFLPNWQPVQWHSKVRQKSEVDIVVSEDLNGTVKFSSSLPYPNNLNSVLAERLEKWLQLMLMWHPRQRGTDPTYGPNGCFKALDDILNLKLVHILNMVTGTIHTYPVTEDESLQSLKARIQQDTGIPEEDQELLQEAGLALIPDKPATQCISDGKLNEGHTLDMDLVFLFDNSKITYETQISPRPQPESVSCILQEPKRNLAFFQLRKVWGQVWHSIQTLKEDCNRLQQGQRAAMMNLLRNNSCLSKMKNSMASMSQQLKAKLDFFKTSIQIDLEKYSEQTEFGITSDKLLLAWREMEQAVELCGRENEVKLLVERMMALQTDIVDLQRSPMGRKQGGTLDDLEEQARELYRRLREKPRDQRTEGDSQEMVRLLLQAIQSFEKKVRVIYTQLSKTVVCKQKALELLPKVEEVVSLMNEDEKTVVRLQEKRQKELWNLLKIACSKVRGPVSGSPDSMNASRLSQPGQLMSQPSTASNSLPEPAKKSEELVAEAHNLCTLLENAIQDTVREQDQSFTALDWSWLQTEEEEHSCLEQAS
For another series, the target named is PKCh (Homo sapiens (Human), UniProt P24723). Briefly: Kinase assay PKCh. The series is classed as biochemical. The note with it: HCl salt. On the procedure:
as §1

The next series concerns the target PKCd (Homo sapiens (Human), UniProt Q05655). Briefly: Kinase assay PKCd. The series is classed as biochemical. Conditions: HCl salt. On the procedure:
as §1

Another series concerns the target PKCe (Homo sapiens (Human), UniProt Q02156). Briefly: Kinase assay PKCe. The series is classed as biochemical. Conditions: HCl salt. On the procedure:
as §1

Another series deals with AKT1 (Homo sapiens (Human), UniProt P31749). Briefly: Kinase assay AKT1. The series is classed as biochemical. The note with it: HCl salt. On the procedure:
as §1

Another series concerns PTM. Briefly: PTM assay. The series is classed as cell-based. The note with it: HCl salt. The protocol:
as §1

The subject of another series is HTM. Briefly: HTM assay. Conditions: HCl salt. The series is classed as cell-based. On the procedure:
as §1

A short description of another series: in vitro. The series is classed as cell-based.
The test system of a further series is NFkB. Briefly: NFkB assay. The series is classed as cell-based. The note with it: HCl salt. The protocol:
as §1

For series [1], the system named is Myeloperoxidase (MPO) activity. Briefly: Myeloperoxidase (MPO) activity after intravitreal LPS in mice. The series is classed as in vivo, C57Bl6 male mice. Conditions: dosed at 0 and 6 hours. On the procedure:
Adult C57Bl6 male mice were injected with 2 ng of lipopolysaccharide (LPS) intravitreally. The mice were then dosed with vehicle, compounds or control treatments (0.07% w/w, 0.02% w/w or 0.007% w/w) at times 0 and 6 hours post-injection. Aqueous humor (AH) and vitreous humor (VH) was collected 24 hours after injection of LPS and assayed for MPO activity by ELISA. Data is a compilation of two separate experiments. Statistical analysis was carried out on GraphPad prism using a multiple comparisons 1-way ANOVA with uncorrected Dunn's test. Results are shown in FIG. 5 (aqueous humor) and FIG. 6 (vitreous humor). In FIG. 5 and FIG. 6, Dex refers to dexamethasone, Compound A refers to (S)-3-amino-2-(4-(hydroxymethyl)phenyl)-N-(isoquinolin-6-yl)propanamide, * refers to p<0.05, and ** refers to p<0.005. MPO levels correspond to levels of neutrophil infiltration. In the context of non-infectious inflammatory events, neutrophils cause robust levels of damage to tissues.

Counter-ions that a name gives are not always drawn.

AKT1, sequence (P31749 whole entry, species assumed): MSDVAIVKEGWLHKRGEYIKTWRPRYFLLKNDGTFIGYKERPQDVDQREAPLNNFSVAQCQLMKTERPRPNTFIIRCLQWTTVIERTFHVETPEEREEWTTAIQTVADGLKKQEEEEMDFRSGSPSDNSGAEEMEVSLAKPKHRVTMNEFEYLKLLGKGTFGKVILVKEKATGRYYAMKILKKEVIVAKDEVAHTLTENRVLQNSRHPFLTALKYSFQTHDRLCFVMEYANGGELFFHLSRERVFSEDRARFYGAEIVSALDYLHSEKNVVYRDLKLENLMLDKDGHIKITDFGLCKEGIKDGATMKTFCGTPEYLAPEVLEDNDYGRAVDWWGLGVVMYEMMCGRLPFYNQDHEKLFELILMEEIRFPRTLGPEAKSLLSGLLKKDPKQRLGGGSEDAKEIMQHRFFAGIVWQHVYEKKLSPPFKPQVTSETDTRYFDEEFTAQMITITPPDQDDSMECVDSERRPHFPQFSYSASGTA
ROCK1, sequence (Q13464 whole entry, species assumed): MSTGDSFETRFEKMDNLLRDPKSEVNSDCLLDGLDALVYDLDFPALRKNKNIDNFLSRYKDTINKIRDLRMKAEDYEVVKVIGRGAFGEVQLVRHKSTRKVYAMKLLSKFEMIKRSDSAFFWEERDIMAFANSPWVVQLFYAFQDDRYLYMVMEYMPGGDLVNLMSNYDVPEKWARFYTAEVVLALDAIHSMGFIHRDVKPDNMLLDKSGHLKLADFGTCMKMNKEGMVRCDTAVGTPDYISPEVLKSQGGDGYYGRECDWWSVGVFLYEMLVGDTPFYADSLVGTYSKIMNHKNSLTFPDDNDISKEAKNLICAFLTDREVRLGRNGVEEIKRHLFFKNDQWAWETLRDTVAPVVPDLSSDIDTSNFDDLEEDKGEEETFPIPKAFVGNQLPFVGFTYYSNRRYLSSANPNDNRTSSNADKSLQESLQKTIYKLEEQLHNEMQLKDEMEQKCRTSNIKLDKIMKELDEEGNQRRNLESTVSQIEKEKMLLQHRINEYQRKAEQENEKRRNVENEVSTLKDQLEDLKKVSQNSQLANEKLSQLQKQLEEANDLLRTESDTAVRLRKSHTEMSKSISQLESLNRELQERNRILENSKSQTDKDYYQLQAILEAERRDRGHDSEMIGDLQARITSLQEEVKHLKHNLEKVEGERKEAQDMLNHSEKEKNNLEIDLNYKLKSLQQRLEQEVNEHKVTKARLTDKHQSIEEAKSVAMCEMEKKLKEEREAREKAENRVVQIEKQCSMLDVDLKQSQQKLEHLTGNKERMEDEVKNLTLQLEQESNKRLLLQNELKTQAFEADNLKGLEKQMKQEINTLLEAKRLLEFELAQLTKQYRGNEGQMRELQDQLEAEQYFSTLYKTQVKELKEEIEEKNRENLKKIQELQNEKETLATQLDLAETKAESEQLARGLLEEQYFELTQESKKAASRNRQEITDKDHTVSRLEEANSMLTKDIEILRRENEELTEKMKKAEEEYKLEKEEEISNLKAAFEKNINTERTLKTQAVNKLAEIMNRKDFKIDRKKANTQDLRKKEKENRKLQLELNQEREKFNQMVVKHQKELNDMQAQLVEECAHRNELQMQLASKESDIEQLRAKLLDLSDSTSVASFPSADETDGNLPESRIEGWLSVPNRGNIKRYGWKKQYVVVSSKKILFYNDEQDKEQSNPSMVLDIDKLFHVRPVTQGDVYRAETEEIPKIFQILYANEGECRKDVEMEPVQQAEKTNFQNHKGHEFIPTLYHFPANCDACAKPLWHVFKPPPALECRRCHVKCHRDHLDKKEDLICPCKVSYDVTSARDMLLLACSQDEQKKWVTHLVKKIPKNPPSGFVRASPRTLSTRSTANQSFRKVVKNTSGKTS

For `CC1(C)O[C@@H]2C[C@H]3[C@@H]4CCC5=CC(=O)C=C[C@]5(C)[C@@]4(F)[C@@H](O)C[C@]3(C)[C@]2(C(=O)COC(=O)CCC(=O)OCc2ccc([C@@H](CN)C(=O)Nc3ccc4cnccc4c3)cc2)O1` [Example 33], the concentration for half-maximal inhibition (IC50) stood at 14 nM at ROCK2; 21 nM on ROCK1; 81 nM at PKA; 50000 nM at JAK1; 42400 nM on JAK2; 30100 nM on JAK3. Besides, the IC50 on TYK2 came to 50000 nM; at IKKb it was 40100 nM; at PKCh it was 145 nM; on PKCd it was 142 nM; on PKCe it was 1580 nM; at AKT1 it was 1240 nM. Besides, the IC50 in the series with PTM amounted to 75 nM; in the series on HTM, 4 nM; in the series “in vitro”, 55200 nM; with NFkB, 103 nM. The “effect on myeloperoxidase activity in aqueous humor” value in [1] (aqueous humor 24 hours, FIG. 5) is “inhibiting effect”. Further, the “effect on myeloperoxidase activity in vitreous humor” value in series [1] (vitreous humor 24 hours, FIG. 6) is “inhibiting effect”.
Take `C[C@@H]1C[C@H]2[C@@H]3CCC4=CC(=O)C=C[C@]4(C)[C@@]3(F)[C@@H](O)C[C@]2(C)[C@@]1(O)C(=O)COC(=O)CCC(=O)OCc1ccc([C@@H](CN)C(=O)Nc2ccc3cnccc3c2)cc1` [Example 25]: the IC50 on ROCK2 worked out at 17 nM; on ROCK1, 25 nM; at PKA it was 138 nM; at JAK1, 50000 nM; at JAK2, 40900 nM; on JAK3, 21400 nM. Moreover, the IC50 came to 50000 nM on TYK2; 38500 nM on IKKb; 173 nM on PKCh; 225 nM at PKCd; 1580 nM on PKCe; 955 nM on AKT1. In addition, the IC50 in the series with PTM was determined as 295 nM; with HTM it was 4.5 nM; in the series “in vitro”, 100000 nM; in the series with NFkB it was 39 nM.
In the case of `C[C@@H]1C[C@H]2[C@@H]3CCC4=CC(=O)C=C[C@]4(C)[C@@]3(F)[C@@H](O)C[C@]2(C)[C@@]1(O)C(=O)COC(=O)C[C@H](N)C(=O)OCc1ccc([C@@H](CN)C(=O)Nc2ccc3cnccc3c2)cc1` [Example 83, 1-(4-((S)-3-amino-1-(isoquinolin-6-ylamino)-1-oxopropan-2-yl)benzyl) 4-(2-((8S,9R,10S,11S,13S,14S,16R,17R)-9-fluoro-11,17-dihydroxy-10,13,16-trimethyl-3-oxo-6,7,8,9,10,11,12,13,14,15,16,17-dodecahydro-3H-cyclopenta[a]phenanthren-17-yl)-2-oxoethyl) L-aspartate trihydrochloride], the IC50 at ROCK2 was determined as 9 nM; on ROCK1, 11 nM; on PKA, 29 nM; on JAK1, 34700 nM; on JAK2, 22000 nM; on JAK3, 7730 nM. For the same compound, the IC50 on TYK2 is 50000 nM; on IKKb, 19200 nM; on PKCh, 51 nM; at PKCd, 56 nM; at PKCe it was 154 nM; on AKT1, 95 nM. For the same compound, the IC50 in the series on PTM worked out at 43 nM; in the series with HTM it was 25 nM; in “in vitro”, 100000 nM; in the series on NFkB, 55 nM.

For orientation: IC50 means the point on the concentration scale where inhibition reaches its midpoint.

For the origin of these results see patent US11059789B2, “Isoquinoline-steroid conjugates and uses thereof” (priority 2018, dated 2021).
